Reference: patent publication US7763641B2, “Broadspectrum heterocyclic substituted phenyl containing sulfonamide HIV protease inhibitors” (Tibotec Pharmaceuticals Ltd., priority 2001, dated 2010)
Like-named read-outs stand apart in the source and are kept apart here.

Experiments:
HIV-1 strain LAI = experiment: Cellular anti-HIV assay (MTT), wild type strain; type: cell-based; conditions: for pEC50: MT4 cells, five days, MTT, HIV-1 strain LAI, Tables 1-6; for WT (pEC50 against wild type HIV-LAI strain): Table 8
Experimental: The compounds of the present invention were examined for anti-viral activity in a cellular assay. […] The cellular assay was performed according to the following procedure.

mock-infected MT4 cells = experiment: Toxicity on mock-infected cells (MTT)
Experimental: (§1) HIV- or mock-infected MT4 cells were incubated for five days in the presence of various concentrations of the inhibitor. […] Cell viability is measured by measuring the concentration of MTT, a yellow, water soluble tetrazolium dye that is converted to a purple, water insoluble formazan in the mitochondria of living cells only. Upon solubilization of the resulting formazan crystals with isopropanol, the absorbance of the solution is monitored at 540 nm. The values correlate directly to the number of living cells remaining in the culture at the completion of the five day incubation. The inhibitory activity of the compound was monitored on the virus-infected cells and was expressed as EC50 and EC90. These values represent the amount of the compound required to protect 50% and 90%, respectively, of the cells from the cytopathogenic effect of the virus. […] The selectivity index (SI) (ratio CC50/EC50) is an indication of the selectivity of the anti-HIV activity of the inhibitor. Wherever results are reported as e.g. pEC50 or pCC50 values, the result is expressed as the negative logarithm of the result expressed as EC50 or CC50 respectively.
(§2) As a measure of the broad spectrum activity of the present compounds, the fold resistance (FR), defined as FR=EC50 (mutant strain)/EC50 (HIV-1 strain LAI), was determined.

HIV strain A = experiment: Cellular anti-HIV assay, clinically isolated mutant strain A; type: cell-based; conditions: FR=EC50 (mutant strain)/EC50 (HIV-1 strain LAI)
Experimental: as §1
(§3) Because of the increasing emergence of drug resistant HIV strains, the present compounds were tested for their potency against clinically isolated HIV strains harboring several mutations (Table 7 and 8).
as §2

HIV strain E = experiment: Cellular anti-HIV assay, clinically isolated mutant strain E; type: cell-based; conditions: FR=EC50 (mutant strain)/EC50 (HIV-1 strain LAI)
Experimental: as §1, §3, §2

HIV strain C = experiment: Cellular anti-HIV assay, clinically isolated mutant strain C; type: cell-based; conditions: FR=EC50 (mutant strain)/EC50 (HIV-1 strain LAI)
Experimental: as §1, §3, §2

HIV strain B = experiment: Cellular anti-HIV assay, clinically isolated mutant strain B; type: cell-based; conditions: FR=EC50 (mutant strain)/EC50 (HIV-1 strain LAI)
Experimental: as §1, §3, §2

[1] = pCC50 with mock transfected cells

Row | SMILES | pEC50 (HIV-1 strain LAI) | further results
1 | CC(=O)Nc1nc(-c2ccc(S(=O)(=O)N(CC(C)C)C[C@@H](O)[C@H](Cc3ccccc3)NC(=O)COc3c(C)cccc3C)cc2)cs1 [Compound 12] | 5.3 | 
2 | Cc1sc(N)nc1-c1ccc(S(=O)(=O)N(CC(C)C)CC(O)C(Cc2ccccc2)NC(=O)OC2COC3OCCC23)cc1 (stereo not drawn) [Compound 7] | 7.3 | 
3 | CC(C)CN(CC(O)C(Cc1ccccc1)NC(=O)OC1COC2OCCC12)S(=O)(=O)c1ccc(-c2csc(Nc3ccncc3)n2)cc1 (stereo not drawn) [Compound 5] | 7.6 | Tox (pCC50) (mock-infected MT4 cells; [1]): 4.95; A (FR value towards mutant A) (HIV strain A): 22.3; WT (pEC50 against wild type HIV-LAI strain) (HIV-1 strain LAI): 7.6; E (FR towards mutant E) (HIV strain E): 13.5; C (FR towards mutant C) (HIV strain C): 3.0; B (FR towards mutant B) (HIV strain B): 6.3
4 | CC(C)CN(C[C@@H](O)[C@H](Cc1ccccc1)NC(=O)O[C@H]1CO[C@H]2OCC[C@H]21)S(=O)(=O)c1ccc(-c2cnccn2)cc1 [Compound 56, [(1S,2R)-2-hydroxy-3-[N-(2-methylpropyl)-N-[4-(pyrazin-2-yl)-phenylsulfonyl]amino]-1-(phenylmethyl)propyl]carbamic acid, [(3R,3aS,6aR)-hexahydrofuro[2,3-b]furan-3-yl]ester] | 8.1 | 
5 | CC(C)CN(CC(O)C(Cc1ccccc1)NC(=O)OC1COC2OCCC12)S(=O)(=O)c1ccc(-c2coc(COCc3ccccc3)n2)cc1 (stereo not drawn) [Compound 39] | 8.1 | Tox (pCC50) (mock-infected MT4 cells): <4.0; A (FR value towards mutant A) (HIV strain A): 36; WT (pEC50 against wild type HIV-LAI strain) (HIV-1 strain LAI): 8.1; E (FR towards mutant E) (HIV strain E): 52
6 | CC(C)CN(CC(O)C(Cc1ccccc1)NC(=O)OC1COC2OCCC12)S(=O)(=O)c1ccc(-c2coc(-c3ccc(I)cc3)n2)cc1 (stereo not drawn) [Compound 47] | 7.1 | 
7 | Cc1cccc(C)c1OCC(=O)N[C@@H](Cc1ccccc1)[C@H](O)CN(CC(C)C)S(=O)(=O)c1ccc(-c2csc(Nc3ccncc3)n2)cc1 [Compound 11] | 5.4 | 
8 | CCNc1nc(-c2ccc(S(=O)(=O)N(CC(C)C)C[C@@H](O)[C@H](Cc3ccccc3)NC(=O)COc3c(C)cc(Br)cc3C)cc2)cs1 [Compound 19] | 4.6 | 
9 | CC(=O)Nc1nc(-c2ccc(S(=O)(=O)N(CC(C)C)C[C@@H](O)[C@H](Cc3ccccc3)NC(=O)COc3c(C)cc(Br)cc3C)cc2)cs1 [Compound 17] | 4.2 | 
10 | Cc1nc(-c2ccc(S(=O)(=O)N(CC(C)C)CC(O)C(Cc3ccccc3)NC(=O)OC3COC4OCCC34)cc2)c[nH]1 (stereo not drawn) [Compound 31] | 7.6 | 
11 | C=CCNc1nc(-c2ccc(S(=O)(=O)N(CC(C)C)C[C@@H](O)[C@H](Cc3ccccc3)NC(=O)COc3c(C)cc(Br)cc3C)cc2)cs1 [Compound 18] | 4.4 | 
12 | Cc1cccc(C)c1OCC(=O)N[C@@H](Cc1ccccc1)[C@H](O)CN(CC(C)C)S(=O)(=O)c1ccc(-c2csc(N)n2)cc1 [Compound 8] | 5.9 | 
13 | CC(C)CN(CC(O)C(Cc1ccccc1)NC(=O)OC1COC2OCCC12)S(=O)(=O)c1ccc(-c2cn3ccsc3n2)cc1 (stereo not drawn) [Compound 53] | 7.6 | 
14 | Cc1nc(-c2ccc(S(=O)(=O)N(CC(C)C)C[C@@H](O)[C@H](Cc3ccccc3)NC(=O)OCc3cncs3)cc2)co1 [Compound 36, [(1S,2R)-2-hydroxy-3-[N-[4-(2-methyloxazol-4-yl)phenylsulfonyl]-N-(2-methylpropyl)amino]-1-(phenylmethyl)propyl]carbamic acid, (thiazol-5-ylmethyl)ester] | 6.3 | 
15 | Cc1cc(Br)cc(C)c1OCC(=O)N[C@@H](Cc1ccccc1)[C@H](O)CN(CC(C)C)S(=O)(=O)c1ccc(-c2csc(Nc3ccncc3)n2)cc1 [Compound 21] | 4.7 | 
16 | CC(C)CN(C[C@@H](O)[C@H](Cc1ccccc1)NC(=O)OCc1cncs1)S(=O)(=O)c1ccc(-c2csc(Nc3ccncc3)n2)cc1 [Compound 10] | 5.5 | 

Row | SMILES | pEC50 (HIV-1 strain LAI) | further results
17 | CNc1nc(-c2ccc(S(=O)(=O)N(CC(C)C)C[C@@H](O)[C@H](Cc3ccccc3)NC(=O)COc3c(C)cccc3C)cc2)cs1 [Compound 9] | 5.9 | 
18 | Cc1cc(Br)cc(C)c1OCC(=O)N[C@@H](Cc1ccccc1)[C@H](O)CN(CC(C)C)S(=O)(=O)c1ccc(-c2csc(N)n2)cc1 [Compound 13] | 5.3 | 
19 | CC(C)CN(CC(O)C(Cc1ccccc1)NC(=O)OC1COC2OCCC12)S(=O)(=O)c1ccc(-c2coc(-c3ccc4c(c3)OCO4)n2)cc1 (stereo not drawn) [Compound 45] | 7.8 | 
20 | Cc1cccc(C)c1OCC(=O)N[C@@H](Cc1ccccc1)[C@H](O)CN(CC(C)C)S(=O)(=O)c1ccc(-c2ccnn2Cc2ccccc2)cc1 [Compound 28] | 5.2 | 
21 | CC(C)CN(CC(O)C(Cc1ccccc1)NC(=O)OC1COC2OCCC12)S(=O)(=O)c1ccc(-c2coc(CCC(=O)O)n2)cc1 (stereo not drawn) [Compound 41] | 7.2 | 
22 | CC(C)CN(CC(O)C(Cc1ccccc1)NC(=O)OC1COC2OCCC12)S(=O)(=O)c1ccc(-c2coc(N)n2)cc1 (stereo not drawn) [Compound 37] | 8.4 | 
23 | Cc1cccc(C)c1OCC(=O)N[C@@H](Cc1ccccc1)[C@H](O)CN(CC(C)C)S(=O)(=O)c1ccc(-c2cc[nH]n2)cc1 [Compound 24, [(1S,2R)-2-hydroxy-3-[N-(2-methylpropyl)-N-(4-pyrazol-3(5)-ylphenylsulfonyl)-amino]-1-(phenylmethyl)propyl]-(2,6-dimethylphenoxy) acetamide] | 7.1 | Tox (pCC50) (mock-infected MT4 cells; [1]): 4.2; A (FR value towards mutant A) (HIV strain A): 1.1; WT (pEC50 against wild type HIV-LAI strain) (HIV-1 strain LAI): 7.1; E (FR towards mutant E) (HIV strain E): 3.1
24 | CCNc1nc(-c2ccc(S(=O)(=O)N(CC(C)C)C[C@@H](O)[C@H](Cc3ccccc3)NC(=O)COc3c(C)cccc3C)cc2)cs1 [Compound 15] | 5.3 | 
25 | Cc1cccc(C)c1OCC(=O)N[C@@H](Cc1ccccc1)[C@H](O)CN(CC(C)C)S(=O)(=O)c1ccc(-c2ccnn2C)cc1 [Compound 25] | 5.9 | 
26 | CC(C)CN(CC(O)C(Cc1ccccc1)NC(=O)OC1COC2OCCC12)S(=O)(=O)c1ccc(-c2c[nH]c(N)n2)cc1 (stereo not drawn) [Compound 34] | 6.2 | 
27 | CCn1nccc1-c1ccc(S(=O)(=O)N(CC(C)C)C[C@@H](O)[C@H](Cc2ccccc2)NC(=O)COc2c(C)cccc2C)cc1 [Compound 29] | 5.2 | 
28 | CC(C)Cc1nc(-c2ccc(S(=O)(=O)N(CC(C)C)CC(O)C(Cc3ccccc3)NC(=O)OC3COC4OCCC34)cc2)co1 (stereo not drawn) [Compound 49] | 8.1 | Tox (pCC50) (mock-infected MT4 cells): <4.49; WT (pEC50 against wild type HIV-LAI strain) (HIV-1 strain LAI): 8.1; E (FR towards mutant E) (HIV strain E): 10; C (FR towards mutant C) (HIV strain C): 4.4; B (FR towards mutant B) (HIV strain B): 21
29 | CCCn1nccc1-c1ccc(S(=O)(=O)N(CC(C)C)C[C@@H](O)[C@H](Cc2ccccc2)NC(=O)COc2c(C)cccc2C)cc1 [Compound 30] | 5.0 | 
30 | C=CCNc1nc(-c2ccc(S(=O)(=O)N(CC(C)C)C[C@@H](O)[C@H](Cc3ccccc3)NC(=O)COc3c(C)cccc3C)cc2)cs1 [Compound 16] | 5.1 | 
31 | Cc1cccc(C)c1OCC(=O)N[C@@H](Cc1ccccc1)[C@H](O)CN(CC(C)C)S(=O)(=O)c1ccc(-c2ccnn2C(C)(C)C)cc1 [Compound 27] | 5.2 | 
32 | CC(C)CN(CC(O)C(Cc1ccccc1)NC(=O)OC1COC2OCCC12)S(=O)(=O)c1ccc(-c2nc(N)nc(N)n2)cc1 (stereo not drawn) [Compound 58] | 6.0 | 
